Data: patent US8378085B2, “Bacterial ATP synthase binding domain” (priority 2004, dated 2013)

Experiments:
[1] = system: DARQ J mutant M. tuberculosis; assay type: cell-based, Mycobacterium tuberculosis
[2] = system: M. tuberculosis strains resistant to J; assay type: cell-based, Mycobacterium tuberculosis

| Structure (SMILES) | effect on ATP production (total cellular ATP) [1] | sensitivity of M. tuberculosis strains resistant to J to the anti-TB agent [2] |
| --- | --- | --- |
| C(=NC1CCCCC1)=NC1CCCCC1 [DCCD, reference compound] | able to block the ATP production | – |
| COc1nc2ccc(Br)cc2cc1[C@@H](c1ccccc1)[C@@](O)(CCN(C)C)c1cccc2ccccc12 [J] | did not show any decrease | – |
| NCC[C@H](O)C(=O)N[C@@H]1C[C@H](N)[C@@H](O[C@H]2O[C@H](CN)[C@@H](O)[C@H](O)[C@H]2O)[C@H](O)[C@H]1O[C@H]1O[C@H](CO)[C@@H](O)[C@H](N)[C@H]1O [amikacin] | – | unchanged |
| CC[C@@H](CO)NCCN[C@@H](CC)CO [ethambutol] | – | unchanged |
| NNC(=O)c1ccncc1 [isoniazid] | – | unchanged |
| CO[C@H]1/C=C/O[C@@]2(C)Oc3c(C)c(O)c4c(O)c(c(/C=N/N5CCN(C)CC5)c(O)c4c3C2=O)NC(=O)/C(C)=C\C=C\[C@H](C)[C@H](O)[C@@H](C)[C@@H](O)[C@@H](C)[C@H](OC(C)=O)[C@@H]1C [rifampin] | – | unchanged |
| [H]/N=C(/N)N[C@H]1[C@H](O)[C@@H](O)[C@H](O[C@@H]2O[C@@H](C)[C@](O)(C=O)[C@H]2O[C@@H]2O[C@@H](CO)[C@H](O)[C@@H](O)[C@@H]2NC)[C@@H](N/C(N)=N\[H])[C@@H]1O [streptomycin] | – | unchanged |
